From patent US7482489B2, “Enantiomerically pure (R)-albuterol dibenzoyltartrate and protected analogs thereof” (Teva Pharmaceutical Fine Chemicals S.r.l., priority 2004, dated 2009)
Where a name gives a salt, the structure may show the parent alone.

Assays:
Assay type in all cases: physicochemical
[1] = Stability comparison of sample at 40° C. and 75% RH (HPLC area %)
Experimental: Yields were determined by mass. Chemical purity was determined by HPLC. The HPLC analysis was conducted using a column POLARIS C18-A 250 mm×4.6 mm×[…] (cat n.2002-250×046) and a mobile phase. The mobile phase comprised a phosphate buffer at pH 3.00 and acetonitrile in a gradient. The eluent flow was 1.0 ml/min. The detector was set to a wavelength of 230 nm, using an HPLC Hewlett Packard VWD detector HP 1100, as a detector.
Using the products of the previous examples, a stability study at 40° C. and 75% RH was carried out.

[2] = Stability of levalbuterol hydrochloride at 70° C. (HPLC area %, appearance)
Experimental: [table] […] At lower pH values, greater levalbuterol hydrochloride degradation occurred. […] Yields were determined by mass. Chemical purity was determined by HPLC. […] The mobile phase comprised a phosphate buffer at pH 3.00 and acetonitrile in a gradient. The eluent flow was 1.0 ml/min. The detector was set to a wavelength of 230 nm, using an HPLC Hewlett Packard VWD detector HP 1100, as a detector.

[3] = Stability of levalbuterol hydrochloride at different storage temperatures (HPLC area %)
Experimental: At lower pH values, greater levalbuterol hydrochloride degradation occurred. […] [table] […] The percentage LVB, Compound B, or Compound A is relative to the total amount of sample at time=T. Yields were determined by mass. Chemical purity was determined by HPLC. […] The mobile phase comprised a phosphate buffer at pH 3.00 and acetonitrile in a gradient. The eluent flow was 1.0 ml/min. The detector was set to a wavelength of 230 nm, using an HPLC Hewlett Packard VWD detector HP 1100, as a detector.

[4] = 3 months at 40° C. and 75% RH, Hydrochloride
[5] = 6 months at 40° C. and 75% RH, Hydrochloride
[6] = T = 0, 40° C. and 75% RH study, Hydrochloride
[7] = 1 week at 70° C., Hydrochloride
[8] = T = 0, before storage at 70° C., Hydrochloride

CC(C)(C)NC[C@H](O)c1ccc(O)c(CO)c1 [Example 8, Levalbuterol Hydrochloride]
Comp. A [1, 4]: 0.03%
Comp. B [1, 4]: 0.07%
LVB [1, 4]: 99.85%
Total Unknown Impurities [1, 4]: 0.05%
Total Unknown Impurities ([1]; 6 months at 40° C. and 75% RH): 0.09%
Comp. A [1, 5]: 0.03%
Comp. B [1, 5]: 0.07%
LVB [1, 5]: 98.81%
Comp. A [1, 6]: 0.01%
Comp. B [1, 6]: 0.03%
LVB [1, 6]: 99.87%
Total Unknown Impurities [1, 6]: 0.09%

CC(C)(C)NC[C@H](O)c1ccc(O)c(CO)c1 [Example 12, Levalbuterol Hydrochloride]
Comp. A [1, 4]: 0.02%
Comp. B [1, 4]: 0.06%
LVB [1, 4]: 99.85%
Total Unknown Impurities [1, 4]: 0.07%
Total Unknown Impurities ([1]; 6 months at 40° C. and 75% RH): 0.09%
Comp. A [1, 5]: 0.02%
Comp. B [1, 5]: 0.06%
LVB [1, 5]: 99.83%
Comp. A [1, 6]: 0.02%
Comp. B [1, 6]: 0.01%
LVB [1, 6]: 99.91%
Total Unknown Impurities [1, 6]: 0.06%

CC(C)(C)NC[C@H](O)c1ccc(O)c(CO)c1 [Example 16, Levalbuterol Hydrochloride]
Comp. C ([1]; 3 months at 40° C. and 75% RH): 0.04%
Comp. A [1, 4]: 0.06%
Comp. B [1, 4]: 0.09%
LVB [1, 4]: 99.75%
Total Unknown Impurities [1, 4]: 0.08%
Comp. C ([1]; 6 months at 40° C. and 75% RH): 0.05%
Comp. A [1, 5]: 0.07%
Comp. B [1, 5]: 0.13%
LVB [1, 5]: 99.72%
Comp. A [1, 6]: 0.01%
Comp. B [1, 6]: 0.02%
LVB [1, 6]: 99.86%
Total Unknown Impurities [1, 6]: 0.11%

CC(C)(C)NC[C@H](O)c1ccc(O)c(CO)c1 [Example 21, Levalbuterol Hydrochloride]
Compound A [2, 7]: 0.72%
Compound B [2, 7]: 0.26%
Compound C [2, 7]: 0.18%
LVB (levalbuterol hydrochloride) [2, 7]: 97.1%
Sample (appearance) [2, 7]: Pale yellow
Total Unknown Impurities [2, 7]: 1.21%
Compound C ([2]; T = 0, before storage at 70° C.): 0.15%
Compound A [2, 8]: 0.24%
Compound B [2, 8]: 0.18%
LVB (levalbuterol hydrochloride) [2, 8]: 99.4%
Sample (appearance) [2, 8]: White solid^c

CC(C)(C)NC[C@H](O)c1ccc(O)c(CO)c1 [levalbuterol hydrochloride, (R)-α^1-[[(1,1-dimethylethyl)amino]methyl]-4-hydroxy-1,3-benzenedimethanol hydrochloride]
Sample (appearance) [2, 8]: White solid
Compound A ([3]; 1 month, 25° C.): 0.03%
Compound B ([3]; 1 month, 25° C.): 0.02%
LVB ([3]; 1 month, 25° C.): 99.87%
Total Unknown Impurities ([3]; 1 month, 25° C.): 0.08%
Compound A ([3]; 2 months, 25° C.): 0.04%
Compound B ([3]; 2 months, 25° C.): 0.02%
LVB ([3]; 2 months, 25° C.): 99.82%
Total Unknown Impurities ([3]; 2 months, 25° C.): 0.12%
Compound A ([3]; 20 hrs, 40-45° C.): 0.11%
Compound B ([3]; 20 hrs, 40-45° C.): 0.30%
LVB ([3]; 20 hrs, 40-45° C.): 99.30%
Total Unknown Impurities ([3]; 20 hrs, 40-45° C.): 0.29%
Compound A ([3]; 20 hrs, 55-60° C.): 0.23%
Compound B ([3]; 20 hrs, 55-60° C.): 0.45%
LVB ([3]; 20 hrs, 55-60° C.): 98.17%
Total Unknown Impurities ([3]; 20 hrs, 55-60° C.): 1.15%
Compound A ([3]; 32 hrs, 55-60° C.): 0.26%
Compound B ([3]; 32 hrs, 55-60° C.): 0.45%
LVB ([3]; 32 hrs, 55-60° C.): 97.9%
Total Unknown Impurities ([3]; 32 hrs, 55-60° C.): 1.39%
Compound A ([3]; 10 days, 25° C.): 0.02%
Compound B ([3]; 10 days, 25° C.): 0.01%
LVB ([3]; 10 days, 25° C.): 99.88%
Total Unknown Impurities ([3]; 10 days, 25° C.): 0.09%
Compound A ([3]; T = 0, 20° C., MeOH 6700 ppm): 0.028%
Compound B ([3]; T = 0, 20° C., MeOH 6700 ppm): 0.035%
LVB ([3]; T = 0, 20° C., MeOH 6700 ppm): 99.84%
Total Unknown Impurities ([3]; T = 0, 20° C., MeOH 6700 ppm): 0.097%
Compound A ([3]; T = 0, 25° C., MeOH 2090 ppm): 0.02%
Compound B ([3]; T = 0, 25° C., MeOH 2090 ppm): 0.01%
LVB ([3]; T = 0, 25° C., MeOH 2090 ppm): 99.90%
Total Unknown Impurities ([3]; T = 0, 25° C., MeOH 2090 ppm): 0.07%
